Earlier results, collected in PMC7878667, “The Kinase Specificity of Protein Kinase Inhibitor Peptide” (Frontiers in Pharmacology, 2021).

Experiments:
[1] = system: PKA catalytic subunit; details: ref Murray, 2008
Source text: (§1) Despite the additional targets of PKI identified in our study, PKI seems more specific than the other commonly used PKA inhibitors, H89 and KT 5720 ([Murray, 2008]). This may be due to their different mechanisms of action. […] The off-target effects of these reagents have partial overlap ([Murray, 2008]).

[2] = system: ROCK2; details: ref Murray, 2008
Source text: as §1

[3] = system: PKBα; details: ref Murray, 2008
Source text: as §1

[4] = system: PDK1; details: ref Murray, 2008
Source text: as §1

[5] = system: PKC; details: ref Day et al., 1989; Smith et al., 1990
Source text: In principle, this could be due to PKI interfering with 1) the protease reaction, 2) the fluorescence detection, or 3) the FRET response. […] Second, the forms of PKC used are different: we used purified human recombinant PKC isoforms expressed in insect ce ...

| Molecule | mechanism of PKA inhibition [1] | effect on ROCK2 [2] | effect on PKBα [3] | effect on PDK1 activity [4] | influence on PKC [5] |
| --- | --- | --- | --- | --- | --- |
| O=S(=O)(NCCNC/C=C/c1ccc(Br)cc1)c1cccc2cnccc12 [H89] | competitively inhibits ATP binding on the PKA catalytic subunit | inhibits ROCK2 potently | inhibited |  |  |
| CCCCCCOC(=O)[C@]1(O)C[C@@H]2O[C@@]1(C)n1c3ccccc3c3c4c(c5c6ccccc6n2c5c31)C(=O)NC4 [KT 5720] | competitively inhibits ATP binding on the PKA catalytic subunit |  | inhibited | inhibited |  |
| IAAGRTGRRQAIHDILVAA [PKI-tide] |  |  |  |  | did not find significant influence |
